Measurements from US20220218715A1, “NOVEL USE OF PYRROLO-PYRIDINE DERIVATIVE COMPOUND FOR PREVENTION AND/OR TREATMENT OF CANCER” (VORONOI CO., LTD., priority 2019, published 2022).

Key:
PC-9 lung cancer cells = test: Anticancer effect in mouse model with PC-9 lung cancer cells; type: in vivo, Balb/c Nude Mice; settings: PC-9 model; singular treatment with EGFR targeting drug, PO QD (Gefitinib 10 mg/kg, Osimertinib 3 mg/kg)
Experimental: (§1) The PC-9 cell line was purchased from NanJing Cobioer Biological Technology Co., Ltd. Cells were kept in RPMI-1640 containing 10% FBS, and cultured in a 37° C. humidified cell culture incubator at 5% C2. All animal experiments were carried out according to the Animal Use and Management Guidelines of Shanghai Medicilon Inc. Under sterile conditions, 2×10^6 PC-9 tumor cells (0.1 mL, cell:Matrigel®=1:1) was administered to the right waist of each animal by S.C. administration. Tumor size and animal body weight were measured twice weekly, and clinical symptoms were recorded daily. The mice will be administered individually according to most recent body weight. The tumors were measured using calipers using two measurements, length (a) and width (b). The volume of the tumors was calculated individually as follows, from the two measured diameters of the tumors: tumor volume (mm^3)=(a×b^2)/2.

[1] = tested on: NCI-H1975 lung cancer cells; test: Anticancer effect in mouse model with NCI-H1975 lung cancer cells; type: in vivo, Balb/c Nude Mice; settings: singular treatment with Osimertinib 3.5 mg/kg PO QD
Experimental: as §1, with “NCI-H1975” for “PC-9”, “the Institute of Biochemistry and Cell Biology (Shanghai Institutes for” for “NanJing Cobioer”, “Sciences, CAS).” for “Technology Co., Ltd.”, “CO2.” for “C2.”, “Under sterile conditions, 2×10^6 PC-9 tumor cells (0.1 mL, cell:Matrigel®=1:1) was administered to the right waist of each animal by S.C. administration.” left out

C=CC(=O)Nc1cc(Nc2nccc(-c3cn(C)c4ccccc34)n2)c(OC)cc1N(C)CCN(C)C [Osimertinib, reference compound]
cancer cell regrowth during treatment (PC-9 lung cancer cells): early regrowth of cancer cells was observed
cancer cell regrowth during treatment [1]: early regrowth of cancer cells was observed
